{"source": "patent US20030181436A1", "about": "“Treatment for AIDS, HIV, and other related diseases and compounds for use therewith” (priority 2001, published 2003)", "assay_type_in_all_cases": "cell-based", "key": {"HIV": {"test_system": "HIV", "assay": "PBMC time of addition assay", "text": "FIGS. 18 and 19 show the results of the time of addition assay with the K and Z compound. In time of addition assays the timed addition of compounds after initial infection allows the identification of specific stages of virus replication. This is seen with the positive control compound AZT. AZT is a reverse transcriptase inhibitor. […] Thus it has an antiviral target that is occurring after completion of reverse transcription. […] In general since this time of addition uses multiple rounds of infection in the PBMCs versus a single round in cell lines systems, lower concentrations of compound will often shift the curve to the left. This is seen in FIG. 18."}, "[1]": {"test_system": "HIV-1 attachment to HeLa CD4 LTR B-gal cells", "assay": "Inhibition of attachment assay", "settings": "for IC50: attachment assay", "experimental": "(§1) The attachment assay was performed with the HeLa CD4 LTR B-gal cells available from the AIDS Research and Reference Reagent Repository. […] HeLa CD4 LTR B-gal cells express cell surface CD4 and contain an LTR B-galactosidase reporter construct. Upon infection either the Tat protein incorporated into the virion or new Tat produced following virus integration and transcription trans-activate the LTR B-gal reporter, leading to expression of the B-galactosidase enzyme. HeLa CD4 LTR B-gal cells are routinely cultured with the required selection antibiotics and scrended for mycoplasma contamination. Twenty-four h prior to initiation of the assay cells were trypsinized, counted and 1×10^4 cells placed in a 0.2 cm well in media without selection antibiotics. Media was removed and compound media placed on the cells and incubated for 15 to 30 min at 37° C. A known titer of virus was then added to the wells and the incubation continued for 1 h. At the end of the incubation the wells were washed 6 times with media and the culture continued for 48 h. At 48 h the wells were washed one time with PBS and B-galactosidase enzyme expression determined by chemiluminescence per manufacturers instructions (Tropix Gal-screen TM, Tropix, Bedford, Mass.). Compound toxicity was monitored on sister plates using MTS dye reduction. (See Tables 14 through 16 and FIGS. 21 and 22)."}, "[2]": {"test_system": "CEM-SS cells chronically infected with SK-1", "assay": "Chronically infected CEM/SK-1 cell assay, cell viability by MTS", "experimental": "At assay termination the assay plates were stained with the soluble tetrazolium-based dye MTS (CellTiter® Reagent, Promega) to determined cell viability and quantify compound toxicity. […] At termination of the assay 20 μL of MTS reagent was added per well. The wells were incubated for 4 h at 37° C., 5% CO2. Adhesive plate scalers were used in place of the lids, the sealed plate was inverted several times to mix the soluble formazan product and the plate was read spectrophotometrically at 490 nm with a 650 nm reference wavelength on a Molecular Devices Vmax plate reader.\nThe chronically infected CEM cells were cultured and the assay performed in RPMI 1640 supplemental with 10% Fetal Bovine Serum (heat inactivated), 2 mM L-glutamine, 100 U/mL penicillin, […] and 10 ug/mL gentamycin. On day 3 cell-free supernatants were collected and cell viability measured by MTS dye reduction."}, "HeLa CD4 LTR B-gal cells": {"test_system": "HeLa CD4 LTR B-gal cells", "assay": "Attachment assay, toxicity on sister plates by MTS", "settings": "for TC50: attachment assay", "experimental": "as §1, with “reduction.” for “reduction. (See Tables 14 through 16 and FIGS. 21 and 22).”"}}, "data": [{"substance": "Potassium Iodiscorbate [Compound K]", "values": [{"measurement": "suppression of virus replication", "setting": "HIV; 6.4 μg/ml, added at 4 h", "value": "no inhibition"}, {"measurement": "suppression of virus replication", "setting": "HIV; 6.4 μg/ml, added at 9 h", "value": 71, "unit": "%"}, {"measurement": "suppression of virus replication", "setting": "HIV; 64 μg/ml, added 49 h post infection", "value": 75, "unit": "%"}, {"measurement": "suppression of virus replication", "setting": "HIV; 64 μg/ml, added at 4 h", "value": 35, "unit": "%"}, {"measurement": "suppression of virus replication", "setting": "HIV; 64 μg/ml, added at 9 h", "value": 87, "unit": "%"}]}, {"substance": "Zinc Iodiscorbate [Compound Z]", "values": [{"measurement": "efficacy in HeLa CD4 LTR β-gal attachment assay", "setting": "[1]", "value": "inactive"}, {"measurement": "% VC", "setting": "[1]; 0.32 μG/Ml", "value": 90.2, "unit": "%"}, {"measurement": "% VC", "setting": "[1]; 1 μG/Ml", "value": 94.8, "unit": "%"}, {"measurement": "% VC", "setting": "[1]; 3.2 μG/Ml", "value": 74.5, "unit": "%"}, {"measurement": "% VC", "setting": "[1]; 10 μG/Ml", "value": 62.4, "unit": "%"}, {"measurement": "% VC", "setting": "[1]; 32 μG/Ml", "value": 54.4, "unit": "%"}, {"measurement": "% VC", "setting": "[1]; 100 μG/Ml", "value": 66.8, "unit": "%"}, {"measurement": "IC50", "setting": "[1]", "value": ">100", "unit": "µg/mL"}, {"measurement": "IC50", "setting": "[1]; listed as COMPOUND Z", "value": "IC50 (μG/mL) = >100 μg/mL"}, {"measurement": "TOXICITY VALUES (MTS) MEAN", "setting": "[2]; 0.625 μG/Ml", "value": 1.757, "unit": "O. D."}, {"measurement": "TOXICITY VALUES (MTS) MEAN", "setting": "[2]; 2 μG/Ml", "value": 1.655, "unit": "O. D."}, {"measurement": "% CC", "setting": "[2]; 6.25 μG/Ml", "value": 35.8, "unit": "%"}, {"measurement": "TOXICITY VALUES (MTS) MEAN", "setting": "[2]; 6.25 μG/Ml", "value": 0.631, "unit": "O. D."}, {"measurement": "% CC", "setting": "[2]; 20 μG/Ml", "value": 31.4, "unit": "%"}, {"measurement": "TOXICITY VALUES (MTS) MEAN", "setting": "[2]; 20 μG/Ml", "value": 0.553, "unit": "O. D."}, {"measurement": "% CC", "setting": "[2]; 62.5 μG/Ml", "value": 17.1, "unit": "%"}, {"measurement": "TOXICITY VALUES (MTS) MEAN", "setting": "[2]; 62.5 μG/Ml", "value": 0.301, "unit": "O. D."}, {"measurement": "% CC", "setting": "[2]; 200 μG/Ml", "value": 0.6, "unit": "%"}, {"measurement": "TOXICITY VALUES (MTS) MEAN", "setting": "[2]; 200 μG/Ml", "value": 0.011, "unit": "O. D."}, {"measurement": "TC50", "setting": "[2]; CEMSK1 chronic infection", "value": "ITC50 (ug/ml) = 5.22"}, {"measurement": "TOXICITY VALUES (Colt Titer) MEAN", "setting": "HeLa CD4 LTR B-gal cells; 0.32 μG/Ml", "value": 0.989, "unit": "O. D."}, {"measurement": "TOXICITY VALUES (Colt Titer) MEAN", "setting": "HeLa CD4 LTR B-gal cells; 1 μG/Ml", "value": 0.989, "unit": "O. D."}, {"measurement": "TOXICITY VALUES (Colt Titer) MEAN", "setting": "HeLa CD4 LTR B-gal cells; 3.2 μG/Ml", "value": 0.989, "unit": "O. D."}, {"measurement": "TOXICITY VALUES (Colt Titer) MEAN", "setting": "HeLa CD4 LTR B-gal cells; 10 μG/Ml", "value": 0.989, "unit": "O. D."}, {"measurement": "TOXICITY VALUES (Colt Titer) MEAN", "setting": "HeLa CD4 LTR B-gal cells; 32 μG/Ml", "value": 0.989, "unit": "O. D."}, {"measurement": "TOXICITY VALUES (Colt Titer) MEAN", "setting": "HeLa CD4 LTR B-gal cells; 100 μG/Ml", "value": 0.989, "unit": "O. D."}, {"measurement": "TC50", "setting": "HeLa CD4 LTR B-gal cells", "value": "greater than 100 μg/mL"}, {"measurement": "TC50", "setting": "HeLa CD4 LTR B-gal cells; listed as COMPOUND Z", "value": "TC50 (μG/mL) + >100 μg/mL"}]}]}
